Laboratory results reported in patent US8153631B2, “Triazole compounds and uses related thereto” (Amgen Inc., priority 2003, dated 2012).
pIC50: −log10 of the molar value.

Biological target: T1, human HSD1 (recombinant HSD1) (Homo sapiens, UniProt P28845)
T1 construct: made in house
Test: In vitro HSD1 activity inhibitory action, SPA of cortisone to cortisol conversion
Assay type: biochemical
Details: recombinant human HSD1 0.1 μg/ml, 500 μM NADPH, 16 nM 3H cortisone, room temperature 90 min, read-out: hHSD1 IC50
Method: In Vitro HSD1 (Hydroxysteroid Dehydrogenase 1) Activity Inhibitory Action
The HSD1 inhibitory activity was examined by quantitative determination by an SPA (scintillation proximity assay) system of the suppressive action on the conversion from cortisone to cortisol using human HSD1 (hereinafter recombinant HSD1) expressed using a baculo-virus system as an enzyme source. For the reaction, a reagent was added to a 96 well plate (96 well Opti-plates™-96 (Packard)) to the following final concentration and a volume of 100 μl was reacted at room temperature for 90 min. The reaction solution used was 0.1 μg/ml recombinant HSD1, 500 μM NADPH, 16 nM ^3H cortisone (Amersham Biosciences, 1.78 Tbq/mol) dissolved in 0.1% BSA (Sigma)-containing PBS and the test drug was 2 μl of a compound solution (dissolved in DMSO). After 90 min, the reaction was stopped by adding PBS (40 μl, containing 0.1% BSA (Sigma)) containing 0.08 μg of anti-cortisol mouse monoclonal antibody (East Coast Biologics), 365 μg SPA PVT mouse antibody-binding beads (Amersham Biosciences) and 175 μM carbenoxolone (Sigma) to the reaction solution. After the completion of the reaction, the plate was incubated overnight at room temperature and the radioactivity was measured by Topcount (Packard). For control, the value (0% inhibition) of the well containing 2 μl of DMSO instead of the test drug was used, and for positive control, the value (100% inhibition) of the well containing carbenoxolone instead of the test drug at the final concentration of 50 μM was used. The inhibition (%) of the test drug was calculated by ((value of control−value of test drug)/(value of control−value of positive control))×100 (%). The IC50 value was analyzed using a computer-based curve fitting soft.

T1 sequence (P28845 whole entry): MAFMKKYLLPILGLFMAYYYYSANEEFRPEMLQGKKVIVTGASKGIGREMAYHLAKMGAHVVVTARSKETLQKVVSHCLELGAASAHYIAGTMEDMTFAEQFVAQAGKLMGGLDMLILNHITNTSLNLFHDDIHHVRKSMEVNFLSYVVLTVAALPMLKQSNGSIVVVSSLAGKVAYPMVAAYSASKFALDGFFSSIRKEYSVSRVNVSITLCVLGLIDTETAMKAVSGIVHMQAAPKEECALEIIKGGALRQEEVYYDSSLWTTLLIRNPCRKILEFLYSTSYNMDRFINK

Structure (SMILES) | pIC50
Cn1c(-c2ccc(NC(=O)CN3CCC(O)CC3)cc2Cl)nnc1C1(c2ccccc2)CC1 [Ex. 1-43] | 6.00 to 8.00
CC(=O)Nc1ccc(-c2nnc(C3(c4ccc(F)cc4)CC3)n2C)c(Cl)c1 [Ex. 1-47] | > 8.00
COc1cc(Cl)ccc1-c1nnc(C2(c3ccccc3)CC2)n1C [Ex. 1-91] | > 8.00
COC(=O)c1cc(OC2CCN(c3nnc(C4(c5ccccc5)CC4)n3C)CC2)ccc1Cl [Ex. 2-62] | 6.00 to 8.00
CCn1c(-c2ccc(C(N)=O)cc2Cl)nnc1C1(c2ccccc2)CC1 [Ex. 1-158] | > 8.00
CONC(=O)Nc1ccc(-c2nnc(C3(c4ccc(F)cc4)CC3)n2C)c(Cl)c1 [Ex. 1-152] | > 8.00
Cn1c(N2CCC(C)(C)CC2)nnc1C1(c2ccc(F)cc2)CC1 [Ex. 2-60] | > 8.00
Cn1c(-c2ccc(N3CCC(C(=O)N4CCCCC4)CC3)cc2Cl)nnc1C1(c2ccccc2)CC1 [Ex. 1-113] | > 8.00
CC(C)n1c(-c2ccc(C(N)=O)cc2)nnc1C1(c2ccc(F)cc2)CC1 [Ex. 1-145] | > 8.00
CNC1CCN(c2nnc(C3(c4ccccc4)CC3)n2C)CC1 [Ex. 2-12] | 6.00 to 8.00
Cn1c(-c2ccc(C(=O)N3CCC(O)CC3)cc2Cl)nnc1C1(c2ccccc2)CC1 [Ex. 1-81] | 6.00 to 8.00
CN(C)C(=O)c1ccc(-c2nnc(C3(c4ccccc4)CC3)n2C)c(Cl)c1 [Ex. 1-77] | 6.00 to 8.00
COC(=O)C1(C)CCN(c2nnc(C3(c4ccccc4)CC3)n2C)CC1 [Ex. 2-67] | > 8.00
Cn1c(-c2ccc(N3CCOCC3)cc2)nnc1C1(c2ccccc2)CC1 [Ex. 1-46] | 6.00 to 8.00
Cn1c(-c2ccc(C(=O)NCCO)cc2Cl)nnc1C1(c2ccccc2)CC1 [Ex. 1-78] | 6.00 to 8.00
Cn1c(N2CCC(Oc3ncc(Cl)cc3Cl)CC2)nnc1C1(c2ccc(F)cc2)CC1 [Ex. 2-31] | > 8.00
Cn1c(C2(c3ccccc3)CC2)nnc1C1(c2ccccc2)CC1 [Ex. 1-121] | > 8.00
CC(C)n1c(-c2ccc(C(N)=O)cc2)nnc1C1(c2ccccc2)CC1 [Ex. 1-132] | > 8.00
Cn1c(N2CCSCC2)nnc1C1(c2ccccc2)CC1 [Ex. 2-21] | > 8.00
Cn1c(-c2ccc(OCCO)cc2Cl)nnc1C1(c2ccccc2)CC1 [Ex. 1-119] | > 8.00
CC1CCN(c2ccc(-c3nnc(C4(c5ccccc5)CC4)n3C)c(Cl)c2)CC1 [Ex. 1-56] | > 8.00
CN(C)CCNC(=O)c1ccc(-c2nnc(C3(c4ccccc4)CC3)n2C)c(Cl)c1 [Ex. 1-87] | 6.00 to 8.00
CONC(=O)Nc1ccc(-c2nnc(C3(c4ccccc4)CC3)n2C)c(Cl)c1 [Ex. 1-117] | > 8.00
CC(C)NC(=O)c1ccc(-c2nnc(C3(c4ccccc4)CC3)n2C)c(Cl)c1 [Ex. 1-79] | 6.00 to 8.00
Cn1c(-c2ccc(OCC(N)=O)cc2Cl)nnc1C1(c2ccccc2)CC1 [Ex. 1-69] | > 8.00
Cn1c(N2CCC(Oc3ncc(C(F)(F)F)cc3Cl)CC2)nnc1C1(c2ccccc2)CC1 [Ex. 2-37] | 6.00 to 8.00
CC(C)n1c(-c2ccc(N3CCOC3=O)cc2)nnc1C1(c2ccc(F)cc2)CC1 [Ex. 1-149] | > 8.00

Structure (SMILES) | pIC50
CNC(=O)c1ccc(-c2nnc(C3(c4ccccc4)CC3)n2C)c(Cl)c1 [Ex. 1-75] | > 8.00
Cn1c(-c2ccc(OCC(F)(F)F)cc2Cl)nnc1C1(c2ccccc2)CC1 [Ex. 1-129] | > 8.00
Cn1c(-c2ccc(N3CCC(C(=O)O)CC3)cc2Cl)nnc1C1(c2ccccc2)CC1 [Ex. 1-59] | 6.00 to 8.00
CN(c1ccccc1)c1nnc(C2(c3ccc(F)cc3)CC2)n1C [Ex. 2-96] | > 8.00
COCCOC(=O)C1CCN(c2ccc(-c3nnc(C4(c5ccccc5)CC4)n3C)c(Cl)c2)CC1 [Ex. 1-62] | > 8.00
Cn1c(N2CCC(C)(C)CC2)nnc1C1(c2ccccc2)CC1 [Ex. 2-58] | > 8.00
Cn1c(-c2ccc(NC(=O)N3CCCC(O)C3)cc2Cl)nnc1C1(c2ccccc2)CC1 (stereo not shown) [Ex. 1-41] | 6.00 to 8.00
CCN(Cc1ccccc1)c1nnc(C2(c3ccccc3)CC2)n1C [Ex. 2-92] | > 8.00
Cn1c(N2CCC(Oc3ncc(Cl)cc3Cl)CC2)nnc1C1(c2ccc(Cl)cc2)CC1 [Ex. 2-29] | 6.00 to 8.00
Cn1c(N2CCC(Oc3ccccc3C(=O)O)CC2)nnc1C1(c2ccccc2)CC1 [Ex. 2-46] | 6.00 to 8.00
Cn1c(-c2ccc(N3CCC(NC(=O)OC(C)(C)C)CC3)cc2Cl)nnc1C1(c2ccccc2)CC1 [Ex. 1-63] | > 8.00
Cn1c(N2CCC(O)CC2)nnc1C1(c2ccccc2)CC1 [Ex. 2-32] | > 8.00
Cn1c(N2CCN(c3ccccc3Cl)CC2)nnc1C1(c2ccccc2)CC1 [Ex. 2-85] | > 8.00
Cn1c(N2CCC(Oc3ccc(C(=O)O)cc3)CC2)nnc1C1(c2ccccc2)CC1 [Ex. 2-44] | 6.00 to 8.00
Cn1c(-c2ccc(C(N)=O)cc2Cl)nnc1C1(c2ccccc2)CC1 [Ex. 1-73] | > 8.00
Cn1c(N2CCC(Oc3ncc(Cl)cc3Cl)CC2)nnc1C1(c2ccc(Cl)cc2Cl)CC1 [Ex. 2-88] | 6.00 to 8.00
Cn1c(N2CCN(Cc3ccc(Cl)cc3Cl)CC2)nnc1C1(c2ccccc2)CC1 [Ex. 2-84] | 6.00 to 8.00
CCn1c(-c2ccc(C(N)=O)cc2Cl)nnc1C1(c2ccc(F)cc2)CC1 [Ex. 1-159] | > 8.00
Cn1c(-c2ccc(Cl)cc2[N+](=O)[O-])nnc1C1(c2ccccc2)CC1 [Ex. 1-93] | > 8.00
Cn1c(-c2ccc(Cl)nc2Cl)nnc1C1(c2ccccc2)CC1 [Ex. 1-97] | 6.00 to 8.00
COCCn1c(N2CCC(Oc3ncc(Cl)cc3Cl)CC2)nnc1C1(c2ccccc2)CC1 [Ex. 2-72] | 6.00 to 8.00
CCCC(=O)Nc1ccc(-c2nnc(C3(c4ccccc4)CC3)n2C)c(Cl)c1 [Ex. 1-28] | > 8.00
Cn1c(-c2ccc(Cl)cc2Cl)nnc1C1(c2ccccc2)CC1 [Ex. 1-18] | > 8.00
COc1ccc(C2(c3nnc(N4CCC(Oc5ncc(Cl)cc5Cl)CC4)n3C)CC2)cc1 [Ex. 2-83] | 6.00 to 8.00
CCCn1c(N2CCC(Oc3ncc(Cl)cc3Cl)CC2)nnc1C1(c2ccccc2)CC1 [Ex. 2-71] | 6.00 to 8.00
Clc1cnc(OC2CCN(c3nnc(C4(c5ccccc5)CC4)n3CC3CC3)CC2)c(Cl)c1 [Ex. 2-76] | > 8.00
CC1CCN(c2nnc(C3(c4ccccc4)CC3)n2C)CC1 [Ex. 2-53] | > 8.00

Structure (SMILES) | pIC50
Cn1c(-c2ccc(N3CCC(O)CC3)cc2Cl)nnc1C1(c2ccccc2)CC1 [Ex. 1-54] | > 8.00
Cn1c(-c2ccc(S(C)(=O)=O)cc2Cl)nnc1C1(c2ccccc2)CC1 [Ex. 1-71] | > 8.00
COc1cc(C(=O)O)ccc1-c1nnc(C2(c3ccccc3)CC2)n1C [Ex. 1-124] | 6.00 to 8.00
COc1cc(C(N)=O)ccc1-c1nnc(C2(c3ccccc3)CC2)n1C [Ex. 1-125] | > 8.00
CN(c1ccc(Cl)cc1)c1nnc(C2(c3ccccc3)CC2)n1C [Ex. 2-94] | > 8.00
Cn1c(N2CCCc3ccccc32)nnc1C1(c2ccccc2)CC1 [Ex. 2-25] | > 8.00
Cn1c(-c2ccc(N3CCC(N)CC3)cc2Cl)nnc1C1(c2ccccc2)CC1 [Ex. 1-64] | 6.00 to 8.00
COC(=O)C1CCN(c2ccc(-c3nnc(C4(c5ccccc5)CC4)n3C)c(Cl)c2)CC1 [Ex. 1-58] | > 8.00
Cn1c(C2CCCCC2)nnc1C1(c2ccccc2)CC1 [Ex. 1-103] | > 8.00
Cn1c(N2CCOCC2)nnc1C1(c2ccccc2)CC1 [Ex. 2-20] | > 8.00
CC(C)C1CCN(c2nnc(C3(c4ccccc4)CC3)n2C)CC1 [Ex. 2-65] | > 8.00
CCOC(=O)Nc1ccc(-c2nnc(C3(c4ccccc4)CC3)n2C)c(Cl)c1 [Ex. 1-38] | > 8.00
COCC(=O)Nc1ccc(-c2nnc(C3(c4ccccc4)CC3)n2C)c(Cl)c1 [Ex. 1-24] | > 8.00
CNC(=O)C1CCN(c2nnc(C3(c4ccccc4)CC3)n2C)CC1 [Ex. 2-18] | 6.00 to 8.00
Cn1c(-c2ccc(NC(=O)CN3CCOCC3)cc2Cl)nnc1C1(c2ccccc2)CC1 [Ex. 1-31] | > 8.00
COc1ccc(COc2ccc(-c3nnc(C4(c5ccccc5)CC4)n3C)c(Cl)c2)cc1 [Ex. 1-67] | > 8.00
Cn1c(C2CCN(c3ncccc3Cl)CC2)nnc1C1(c2ccccc2)CC1 [Ex. 1-14] | > 8.00
Cn1c(C2CCN(c3c(Cl)cncc3Cl)CC2)nnc1C1(c2ccccc2)CCNCC1 [Ex. 1-16] | 6.00 to 8.00
CC(=O)NCCNC(=O)c1ccc(-c2nnc(C3(c4ccccc4)CC3)n2C)c(Cl)c1 [Ex. 1-84] | 6.00 to 8.00
Cn1c(N2CCC(Oc3ccc(Cl)c(C(=O)O)c3)CC2)nnc1C1(c2ccccc2)CC1 [Ex. 2-64] | 6.00 to 8.00
Cn1c(-c2ccc([N+](=O)[O-])cc2Cl)nnc1C1(c2ccccc2)CC1 [Ex. 1-20] | > 8.00
Cn1c(N2CCC(Oc3ccccc3Cl)CC2)nnc1C1(c2ccccc2)CC1 [Ex. 2-30] | > 8.00
CC(=O)N1CCN(c2nnc(C3(c4ccccc4)CC3)n2C)CC1 [Ex. 2-27] | 6.00 to 8.00
Cn1c(-c2ccc(F)cc2Cl)nnc1C1(c2ccccc2)CC1 [Ex. 1-92] | > 8.00
Cn1c(N2CCC(Oc3ccc(Cl)cc3)CC2)nnc1C1(c2ccccc2)CC1 [Ex. 2-35] | > 8.00
